According to the supplement of paper PMC10307832:

How the values were obtained:
Experiment in all cases: relative viability (nuclei count vs DMSO), 5 days (fraction); higher = more cells survive
Docetaxel = compound: CC(=O)O[C@@]12CO[C@@H]1C[C@H](O)[C@@]1(C)C(=O)[C@H](O)C3=C(C)[C@@H](OC(=O)[C@H](O)[C@@H](NC(=O)OC(C)(C)C)c4ccccc4)C[C@@](O)([C@@H](OC(=O)c4ccccc4)[C@H]21)C3(C)C [Docetaxel]
Procedure, shortened: (§1)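 Following overnight incubation at 37 °C, lung cancer cell lines in 1536-well plates were pinned with five library-drug doses (not always all listed) in √10 steps on vehicle-anchored plates. The cells then spent 5 days without medium change before a combined fix, permeabilisation and Hoechst stain, 4× imaging and MetaXpress nuclear counts. Viability is the treated-to-vehicle ratio of nuclei, taken as the median across plates. Only plates with control CV below 25% and at least one doubling passed.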

Tivozanib = compound: COc1cc2nccc(Oc3ccc(NC(=O)Nc4cc(C)on4)c(Cl)c3)c2cc1OC [Tivozanib]
Procedure, shortened: as §1

[1] = compound: Cc1cnc(-c2cnc(NCCNc3ccc(C#N)cn3)nc2-c2ccc(Cl)cc2Cl)[nH]1
Procedure, shortened: as §1

JQ1 = compound: Cc1sc2c(c1C)C(c1ccc(Cl)cc1)=N[C@@H](CC(=O)OC(C)(C)C)c1nnc(C)n1-2 [JQ1]
Procedure, shortened: as §1

Cytarabine = compound: Nc1ccn([C@@H]2O[C@H](CO)[C@@H](O)[C@@H]2O)c(=O)n1 [Cytarabine]
Procedure, shortened: as §1

CPI-613 = compound: O=C(O)CCCCC(CCSCc1ccccc1)SCc1ccccc1 [CPI-613]
Procedure, shortened: as §1

Pimozide = compound: O=c1[nH]c2ccccc2n1C1CCN(CCCC(c2ccc(F)cc2)c2ccc(F)cc2)CC1 [Pimozide]
Procedure, shortened: as §1

| Cell Line | relative viability (Docetaxel; 0.0002 µM) | relative viability (Docetaxel; 0.000632 µM) | relative viability (Docetaxel; 0.002 µM) | relative viability (Docetaxel; 0.006325 µM) | relative viability (Docetaxel; 0.02 µM) | relative viability (Tivozanib; 0.005 µM) | relative viability (Tivozanib; 0.01581 µM) | relative viability (Tivozanib; 0.05 µM) | relative viability (Tivozanib; 0.1581 µM) | relative viability (Tivozanib; 0.5 µM) | relative viability ([1]; 0.08 µM) | relative viability ([1]; 0.253 µM) | relative viability ([1]; 0.8 µM) | relative viability ([1]; 2.53 µM) | relative viability (JQ1; 0.04 µM) | relative viability (JQ1; 0.1265 µM) | relative viability (JQ1; 0.4 µM) | relative viability (JQ1; 1.265 µM) | relative viability (JQ1; 4 µM) | relative viability (Cytarabine; 0.005 µM) | relative viability (Cytarabine; 0.01581 µM) | relative viability (Cytarabine; 0.05 µM) | relative viability (Cytarabine; 0.1581 µM) | relative viability (Cytarabine; 0.5 µM) | relative viability (CPI-613; 5 µM) | relative viability (CPI-613; 15.81 µM) | relative viability (CPI-613; 50 µM) | relative viability (CPI-613; 158.11 µM) | relative viability (CPI-613; 500 µM) | relative viability (Pimozide; 0.08 µM) | relative viability (Pimozide; 0.8 µM) | relative viability (Pimozide; 2.53 µM) | relative viability (Pimozide; 8 µM) | relative viability (Pimozide; 0.253 µM) |
| --- | --- | --- | --- | --- | --- | --- | --- | --- | --- | --- | --- | --- | --- | --- | --- | --- | --- | --- | --- | --- | --- | --- | --- | --- | --- | --- | --- | --- | --- | --- | --- | --- | --- | --- |
| HCC-78 | 0.91 | 0.784 | 0.48 | 0.482 | 0.382 | 0.85 | 0.942 | 0.955 | 0.732 | 0.757 | 0.999 | 0.807 | 0.936 | 0.928 | 0.936 | 0.853 | 0.843 | 0.601 | 0.434 | 1.09 | 0.844 | 0.593 | 0.444 | 0.339 | 0.875 | 0.835 | 0.994 | 0.921 | 0.839 | 0.859 | 0.828 | 0.837 | 0.932 |  |
| HCC-366 | 0.946 | 0.631 | 0.14 | 0.0335 | 0.03 | 0.982 | 0.98 | 1.02 | 1.02 | 0.992 | 1.04 | 0.928 | 0.968 | 0.925 | 1.05 |  | 1.08 | 0.693 | 0.325 | 1.01 | 0.974 | 0.884 | 0.337 | 0.11 | 1.02 | 1.04 | 1.09 | 0.413 | 0.0138 | 0.978 | 0.967 | 0.992 | 0.972 | 1.01 |
| HCC-827 | 0.943 | 1.07 | 0.916 | 0.431 | 0.328 | 1.01 | 1.05 | 1.1 | 1.09 | 1 | 1.05 |  | 1.02 | 1.02 | 1.05 |  | 0.988 | 1.11 | 0.883 | 0.765 | 0.568 | 0.417 | 0.225 | 0.196 | 0.993 | 1.02 | 1.11 | 0.908 | 0.669 |  | 0.955 | 1.02 | 1.01 | 1.04 |
| HOP-62 | 0.969 | 0.759 | 0.543 | 0.289 | 0.184 | 1.01 | 1.03 | 1.09 | 0.936 | 0.978 | 0.989 | 0.826 | 1.02 | 0.942 | 0.999 | 0.808 | 0.662 | 0.29 | 0.153 | 0.848 | 0.636 | 0.431 | 0.159 | 0.104 | 0.978 | 0.936 | 1 | 0.833 | 0.643 | 1.04 | 0.646 | 0.994 | 0.981 | 0.947 |
| IA-LM | 0.704 | 0.231 | 0.131 | 0.0652 | 0.0513 | 0.865 | 1.01 | 0.909 | 0.767 | 0.845 | 1.02 | 0.8 | 1.02 | 0.916 | 0.907 | 0.419 | 0.165 | 0.11 | 0.085 | 0.962 | 0.814 | 0.662 | 0.38 | 0.226 | 0.818 | 0.779 | 0.85 | 0.525 | 0.671 | 0.951 | 0.929 | 1.02 | 0.966 | 1.02 |
| LC-2-ad | 0.653 | 0.46 | 0.328 | 0.282 | 0.202 | 0.975 | 0.995 | 0.928 | 0.815 | 0.569 | 1.03 |  | 0.824 | 0.982 | 0.996 | 0.462 | 0.545 | 0.31 | 0.286 | 0.832 | 0.856 | 0.778 | 0.487 | 0.296 | 0.876 | 0.924 | 0.968 | 0.392 | 0.029 | 0.942 | 0.82 | 0.974 | 0.897 | 0.894 |
| LCLC-97TM1 | 0.88 | 0.617 | 0.3 | 0.104 | 0.0757 | 0.953 | 1.04 | 1.05 | 0.927 | 0.919 | 0.977 | 0.846 | 0.907 | 0.908 | 1 | 0.759 | 0.803 | 0.491 | 0.194 | 0.99 | 0.787 | 0.296 | 0.143 | 0.129 | 0.964 | 0.993 | 0.985 | 0.97 | 0.629 | 0.984 | 0.916 | 0.953 | 0.653 | 0.906 |
| LCLC-103H | 0.973 | 1.09 | 0.903 | 0.502 | 0.458 | 0.996 | 0.995 | 1.06 | 0.982 | 0.994 | 1.03 | 0.865 | 0.989 | 0.952 | 0.979 | 0.83 | 0.906 | 0.658 | 0.427 | 0.912 | 0.991 | 1.01 | 0.965 | 0.894 | 0.999 | 0.95 | 0.99 | 0.854 | 0.773 | 0.975 | 0.911 | 0.969 | 0.963 | 0.905 |
| LK-2 | 0.921 | 0.771 | 0.27 | 0.208 | 0.144 | 1.05 | 0.962 | 0.937 | 0.834 | 0.784 | 1.14 | 0.941 | 0.995 | 1.15 | 0.942 | 0.907 | 0.497 | 0.236 | 0.218 | 0.797 | 0.604 | 0.414 | 0.259 | 0.212 | 0.943 | 0.953 | 1.16 | 1 | 0.929 | 0.965 | 0.843 | 0.808 | 1.06 | 0.93 |
| LOU-NH91 | 0.898 | 0.758 | 0.473 | 0.369 | 0.354 | 0.865 | 1.04 | 0.982 | 0.814 | 0.945 | 1.01 | 0.924 | 0.94 | 0.976 | 0.989 | 0.801 | 0.637 | 0.626 | 0.462 | 0.955 | 0.918 | 0.723 | 0.7 | 0.584 | 0.926 | 0.951 | 0.982 | 0.913 | 0.842 | 0.785 | 0.916 | 1.04 | 0.896 | 0.924 |
